Experimental data published in ChEMBL document CHEMBL3232937.
Activity calls are given as the source filed them. The calls are words filed in the database; no cut-off is given here.

Legend:
[1] = molecular target: T1, Casein kinase I isoform delta (Homo sapiens, UniProt P48730); settings: at 10 µM
Target sequence in this assay (P48730 whole entry, looked up, canonical isoform): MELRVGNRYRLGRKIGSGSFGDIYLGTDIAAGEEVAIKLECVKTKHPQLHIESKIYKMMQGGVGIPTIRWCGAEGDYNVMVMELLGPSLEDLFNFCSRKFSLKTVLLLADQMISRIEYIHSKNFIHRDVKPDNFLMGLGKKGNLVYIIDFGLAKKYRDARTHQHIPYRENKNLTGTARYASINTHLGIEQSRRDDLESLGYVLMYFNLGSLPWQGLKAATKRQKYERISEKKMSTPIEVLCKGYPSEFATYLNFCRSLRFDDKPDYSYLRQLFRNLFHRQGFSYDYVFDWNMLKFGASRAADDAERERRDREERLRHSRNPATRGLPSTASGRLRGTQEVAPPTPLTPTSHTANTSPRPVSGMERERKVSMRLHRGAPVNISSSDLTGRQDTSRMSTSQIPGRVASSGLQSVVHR
Description: Inhibition of human recombinant CK-1delta using casein as substrate at 10 uM after 60 mins by Kinase-Glo assay relative to control

[2] = molecular target: T1, Casein kinase I isoform delta; assay: Inhibition of human recombinant CK-1delta using casein as substrate after 60 mins by Kinase-Glo assay
Target sequence in this assay (P48730 whole entry, canonical isoform): as the sequence (P48730 whole entry, looked up, canonical isoform) above

[3] = pampa
[4] = molecular target: T1, Casein kinase I isoform delta; assay: Competitive inhibition of human recombinant CK-1delta using casein as substrate at 0.25 to 0.5 uM by Lineweaver-Burk plot analysis in presence of ATP
Target sequence in this assay (P48730 whole entry, looked up, canonical isoform): as above

inhibition [1] | SMILES | further results
> 60% | O=C(Cc1cccc(Cl)c1)Nc1nc2ccc(OC(F)(F)F)cc2s1 | 
> 60% | CCOC(=O)c1sc(NC(=O)COCc2ccccc2)nc1C | IC50 [2]: 7.38 µM
> 60% | O=C(Cc1cccc(C(F)(F)F)c1)Nc1nc2ccc(C(F)(F)F)cc2s1 | permeability [3]: 6.4 ×10⁻⁶ cm/s
> 60% | COc1ccc(CC(=O)Nc2nc3ccc(C(F)(F)F)cc3s2)cc1 | permeability [3]: 14.6 ×10⁻⁶ cm/s
> 60% | CCOc1ccc2nc(NC(=O)Cc3cc(OC)c(OC)c(OC)c3)sc2c1 | 
> 60% | Cc1ccc2nc(NC(=O)Cc3cccc(Cl)c3)sc2c1 | permeability [3]: 5.6 ×10⁻⁶ cm/s
> 60% | CCOc1ccc2nc(NC(=O)Cc3ccc(Cl)c(Cl)c3)sc2c1 | 
> 60% | O=C(Cc1ccc(Cl)cc1)Nc1nc2ccc(C(F)(F)F)cc2s1 | permeability [3]: 9.6 ×10⁻⁶ cm/s
> 60% | COc1ccc(OC)c(CC(=O)Nc2nc3ccc(C(F)(F)F)cc3s2)c1 | 
 | CN(C)CCCN1c2ccccc2Sc2ccccc21 [PROMAZINE] | permeability [3]: 12.7 ×10⁻⁶ cm/s
20% | O=C(Cc1cccc(Cl)c1)Nc1nncs1 | 
> 60% | COc1ccccc1CC(=O)Nc1nc2ccc(F)cc2s1 | 
> 60% | COc1ccccc1CC(=O)Nc1nc2ccc(C(F)(F)F)cc2s1 | permeability [3]: 11.2 ×10⁻⁶ cm/s
> 60% | COc1cccc(CC(=O)Nc2nc3ccc(OC)cc3s2)c1 | 
> 60% | CC(=O)c1sc(NC(=O)Cc2cccc(Cl)c2)nc1C | IC50 [2]: 1.12 µM
 | CCOC(=O)c1sc(NC(=O)CNC(=O)c2ccc(N3CCOCC3)cc2)nc1C | IC50 [2]: 9.31 µM
> 60% | CCOc1ccc2nc(NC(=O)Cc3cccc(OC)c3)sc2c1 | 
> 60% | O=C(Cc1ccccc1)Nc1nc2ccccc2s1 | 
> 60% | O=C(CC(c1ccccc1)c1ccccc1)Nc1nc2ccccc2s1 | 
> 60% | CCOc1ccc2nc(NC(=O)C(c3ccccc3)c3ccccc3)sc2c1 | 
> 60% | CCOc1ccc2nc(NC(=O)Cc3ccc(Cl)cc3)sc2c1 | IC50 [2]: 1.11 µM
> 60% | COc1ccc2nc(NC(=O)Cc3ccc(Cl)c(Cl)c3)sc2c1 | 
> 60% | O=C(Cc1ccc(Cl)c(Cl)c1)Nc1nc2ccc(OC(F)(F)F)cc2s1 | 
> 60% | O=C(Cc1cccc(Cl)c1)Nc1nc2ccc(C(F)(F)F)cc2s1 | permeability [3]: 11.2 ×10⁻⁶ cm/s
 | CN1C(C(=O)Nc2ccccn2)=C(O)c2ccccc2S1(=O)=O [PIROXICAM] | permeability [3]: 0.5 ×10⁻⁶ cm/s
> 60% | COc1ccccc1CC(=O)Nc1nc2ccc(Br)cc2s1 | 
> 60% | COc1ccccc1CC(=O)Nc1nc2ccc(OC(F)(F)F)cc2s1 | 
> 60% | COc1ccccc1CC(=O)Nc1nc2ccc(C)cc2s1 | 

inhibition [1] | SMILES | further results
> 60% | CCOc1ccc2nc(NC(=O)Cc3cccc(Cl)c3)sc2c1 | 
> 60% | CCOc1ccc2nc(NC(=O)Cc3ccccc3Cl)sc2c1 | 
> 60% | CCOc1ccc2nc(NC(=O)Cc3ccc(OC)cc3)sc2c1 | 
> 60% | COc1cccc(CC(=O)Nc2nc3ccc(C(F)(F)F)cc3s2)c1 | permeability [3]: 11.2 ×10⁻⁶ cm/s
 | COc1cc(OC)c(C=C2C(=O)Nc3ccccc32)c(OC)c1 | inhibition [4]: Active
> 60% | O=C(Cc1ccc(Cl)cc1)Nc1nc2ccccc2o1 | IC50 [2]: 4.11 µM
 | CNCCCN1c2ccccc2CCc2ccccc21 [DESIPRAMINE] | permeability [3]: 14.6 ×10⁻⁶ cm/s
 | CCOC(=O)c1sc(NC(=O)CNC(=O)c2ccccc2)nc1C | IC50 [2]: 7.45 µM
> 60% | COc1cc(CC(=O)Nc2nc3ccc(C(F)(F)F)cc3s2)cc(OC)c1OC | permeability [3]: 7.2 ×10⁻⁶ cm/s
> 60% | O=C(CCc1cccc(Cl)c1)Nc1nc2ccccc2s1 | 
 | CS(=O)(=O)c1ccc2nc(NC(=O)Cc3cccs3)sc2c1 | IC50 [2]: 2.69 µM
> 60% | COc1ccc2nc(NC(=O)Cc3cccc(Cl)c3)sc2c1 | 
> 60% | COc1ccc2nc(NC(=O)Cc3ccc(Cl)cc3)sc2c1 | 
> 60% | CCOc1ccc2nc(NC(=O)Cc3ccccc3OC)sc2c1 | 
> 60% | COc1ccc(NC(=O)Nc2nc3ccc(C(F)(F)F)cc3s2)cc1 | 
> 60% | COc1ccc2nc(NC(=O)Cc3cc(OC)c(OC)c(OC)c3)sc2c1 | IC50 [2]: 1.12 µM
> 60% | COc1ccccc1CC(=O)Nc1nc2ccc(Cl)cc2s1 | 
> 60% | COc1ccc2nc(NC(=O)Cc3ccccc3OC)sc2c1 | 
> 60% | COc1ccc2nc(NC(=O)Cc3ccccc3Cl)sc2c1 | 
> 60% | COc1cc(CC(=O)Nc2nc3ccc(OC(F)(F)F)cc3s2)cc(OC)c1OC | permeability [3]: 2.6 ×10⁻⁶ cm/s
> 60% | COc1ccc(CC(=O)Nc2nc3ccc(OC)cc3s2)cc1 | 
> 60% | O=C(Cc1ccccc1)Nc1nc2ccc(C(F)(F)F)cc2s1 | permeability [3]: 4.4 ×10⁻⁶ cm/s
> 60% | O=C(Cc1ccccc1Cl)Nc1nc2ccc(C(F)(F)F)cc2s1 | 
 | CCOC(=O)c1sc(NC(=O)CNC(=O)CC(c2ccccc2)c2ccccc2)nc1C | IC50 [2]: 3.79 µM
 | CCOC(=O)c1sc(NC(=O)CNC(=O)Cc2ccccc2)nc1C | IC50 [2]: 10.1 µM
> 60% | O=C(Nc1nc2ccccc2s1)C(c1ccccc1)c1ccccc1 | 
> 60% | O=C(Cc1ccc(Cl)c(Cl)c1)Nc1nc2ccc(C(F)(F)F)cc2s1 | permeability [3]: 1.4 ×10⁻⁶ cm/s
